# Assay results from patent US20260158017A1, “KIF18A INHIBITOR” (WIGEN BIOMEDICINE TECHNOLOGY (SHANGHAI) CO., LTD., priority 2021, published 2026).
# Target: T1, Recombinant human KIF18A (1-467His-tagged) protein (Homo sapiens, UniProt Q8NI77)
# T1 construct: Recombinant human KIF18A (1-467His-tagged) protein; His; made in house
# Experiment: KIF18A enzyme assay (microtubule-stimulated ATPase activity, ADP-Glo)
# Type: biochemical
# Settings: 30 nM KIF18A, 75 μM ATP, 30 μg/mL pig microtubules; read-out: Inhibitory activity against KIF18A IC50
# Method in brief: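 Buffer 15 mM Tris pH 7.5, 10 mM MgCl2, 0.01% Pluronic F-68, 1 μM paclitaxel, 30 μg/mL pig microtubules; reactions at room temperature. IC50 from inhibition relative to DMSO.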
# T1 sequence (Q8NI77 1-467): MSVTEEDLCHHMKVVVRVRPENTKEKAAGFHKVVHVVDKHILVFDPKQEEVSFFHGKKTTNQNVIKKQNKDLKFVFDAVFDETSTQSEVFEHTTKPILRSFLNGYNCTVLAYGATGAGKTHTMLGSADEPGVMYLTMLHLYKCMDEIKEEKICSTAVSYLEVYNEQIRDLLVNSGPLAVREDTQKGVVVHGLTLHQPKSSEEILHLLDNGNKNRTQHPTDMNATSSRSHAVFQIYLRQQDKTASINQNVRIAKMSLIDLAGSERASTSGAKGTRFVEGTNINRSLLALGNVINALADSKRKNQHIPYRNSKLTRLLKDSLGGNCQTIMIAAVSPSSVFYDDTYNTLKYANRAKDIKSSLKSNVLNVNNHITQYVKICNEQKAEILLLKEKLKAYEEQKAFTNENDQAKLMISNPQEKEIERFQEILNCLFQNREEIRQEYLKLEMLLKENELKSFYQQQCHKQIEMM
# T1 sequence (P02550 whole entry partner): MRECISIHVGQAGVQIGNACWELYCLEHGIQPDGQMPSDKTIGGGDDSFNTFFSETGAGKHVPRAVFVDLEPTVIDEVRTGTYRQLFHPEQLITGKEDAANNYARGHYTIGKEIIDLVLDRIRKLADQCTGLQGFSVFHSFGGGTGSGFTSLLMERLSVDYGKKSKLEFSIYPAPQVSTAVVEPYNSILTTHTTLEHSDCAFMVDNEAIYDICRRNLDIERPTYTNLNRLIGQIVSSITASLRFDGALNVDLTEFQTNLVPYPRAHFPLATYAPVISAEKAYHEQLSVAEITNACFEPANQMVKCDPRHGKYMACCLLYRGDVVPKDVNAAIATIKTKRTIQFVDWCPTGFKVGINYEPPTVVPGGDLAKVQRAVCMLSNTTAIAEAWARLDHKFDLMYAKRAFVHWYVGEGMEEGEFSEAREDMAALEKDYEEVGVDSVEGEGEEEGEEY
# T1 sequence (P02554 whole entry partner): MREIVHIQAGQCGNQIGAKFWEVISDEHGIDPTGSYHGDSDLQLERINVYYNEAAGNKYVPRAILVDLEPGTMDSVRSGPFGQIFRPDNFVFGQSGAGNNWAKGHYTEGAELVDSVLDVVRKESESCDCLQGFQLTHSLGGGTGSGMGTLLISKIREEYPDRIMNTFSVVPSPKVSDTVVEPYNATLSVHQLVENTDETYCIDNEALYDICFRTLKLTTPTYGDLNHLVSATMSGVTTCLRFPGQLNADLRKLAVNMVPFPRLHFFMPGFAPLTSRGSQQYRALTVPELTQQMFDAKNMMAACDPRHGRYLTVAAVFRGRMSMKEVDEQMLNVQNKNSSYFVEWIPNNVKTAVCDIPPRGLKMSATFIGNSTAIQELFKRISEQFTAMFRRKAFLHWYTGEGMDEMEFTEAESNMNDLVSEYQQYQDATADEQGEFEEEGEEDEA
row,IC50,Structure (SMILES)
1,100 to 500 nM,O=C(Nc1ccc(S(=O)(=O)NCCO)cc1N1CCC2(CC1)CC2)c1ccc([N+](=O)[O-])c(OC2CCC2)c1 [Compound 55]
2,100 to 500 nM,C[C@@H](CO)NS(=O)(=O)c1cc(N2CCC3(CC2)CC3)c(NC(=O)c2ccc([N+](=O)[O-])c(N3CCC(F)(F)CC3)n2)cn1 [Compound 253]
3,≤ 100 nM,COc1ccc(NC(=O)c2ccc(S(=O)(=O)NCCO)cc2N2CCC3(CC2)CC3)nc1N1CCC2(CC2)C1 [Compound 278]
4,≤ 100 nM,COc1ccc(C(=O)Nc2cnc(NS(=O)(=O)CCO)cc2N2CCC3(CC2)CC3)nc1N1CCO[C@@H](C)C1 [Compound 355]
5,≤ 100 nM,O=C(Nc1ccc([N+](=O)[O-])c(N2CCOCC2)n1)c1ccc(NS(=O)(=O)CCO)cc1N1CCC2(CC1)CC2 [Compound 76]
6,100 to 500 nM,C[C@@H]1CN(c2cc(C(=O)Nc3ccc(S(=O)(=O)N[C@@H](C)CO)cc3N3CCC4(CC3)CC4)ccc2OCF)CCO1 [Compound 543]
7,100 to 500 nM,CC(C)(CO)Nc1cc(C(=O)Nc2ccc(S(=O)(=O)NCCO)cc2N2CCC3(CC2)CC3)ccc1OCF [Compound 539]
8,100 to 500 nM,O=C(Nc1ccc(S(=O)(=O)NCCO)cc1N1CCC2(CC1)CC2)c1ccc(OCF)c(N2CC(F)(F)C2)n1 [Compound 564]
9,≤ 100 nM,COc1ccc(C(=O)Nc2ccc(S(=O)(=O)NCCO)cc2N2CCC3(CC2)CC3)nc1N1CCC(C)(F)C1 (centres unmarked) [Compound 344]

# Further lines, the compound ahead of its results:
row,Structure (SMILES),IC50
1,O=C(Nc1ccc([N+](=O)[O-])c(OCCC(F)(F)F)c1)c1cnc(S(=O)(=O)NCCO)cc1N1CCC2(CC1)CC2 [Compound 117],≤ 100 nM
2,C[C@@H]1CN(c2nc(C(=O)Nc3cnc(NS(=O)(=O)[C@@H](C)CO)cc3N3CCC4(CC3)CC4)ccc2[N+](=O)[O-])CCO1 [Compound 239],≤ 100 nM
3,COc1ccc(C(=O)Nc2ccc(S(=O)(=O)NCCO)cc2N2CCC3(CC2)CC3)nc1N1CCO[C@H](C)C1 [Compound 338],≤ 100 nM
4,COc1ccc(NC(=O)c2ccc(S(=O)(=O)NCCO)cc2N2CCC3(CC2)CC3)nc1OC1CCC1 [Compound 279],≤ 100 nM
5,CSc1ccc(NC(=O)c2cnc(NS(=O)(=O)[C@@H](C)CO)cc2N2CCC3(CC2)CC3)cc1N1CCC(F)(F)CC1 [Compound 621],≤ 100 nM
6,O=C(Nc1ccc([N+](=O)[O-])c(N2CCOCC2)n1)c1cnc(S(=O)(=O)NCCO)cc1N1CCC2(CC1)CC2 [Compound 156],≤ 100 nM
7,C[C@@H]1CN(c2nc(NC(=O)c3ccc(NS(=O)(=O)CCO)cc3N3CCC4(CC3)CC4)ccc2[N+](=O)[O-])CCO1 [Compound 66],≤ 100 nM
8,COc1ccc(NC(=O)c2cnc(NS(=O)(=O)CCO)cc2N2CCC3(CC2)CC3)nc1OCCC(F)(F)F [Compound 293],≤ 100 nM
9,CC1(F)CCN(c2cc(C(=O)Nc3ccc(S(=O)(=O)NCCO)cc3N3CCC4(CC3)CC4)ccc2OCF)C1 (centres unmarked) [Compound 536],100 to 500 nM
10,C[C@H]1CN(c2cc(C(=O)Nc3cnc(NS(=O)(=O)CCO)cc3N3CCC4(CC3)CC4)ccc2[N+](=O)[O-])CCO1 [Compound 195],≤ 100 nM
11,O=C(Nc1ccc(S(=O)(=O)NCCO)cc1N1CCC2(CC1)CC2)c1ccc([N+](=O)[O-])c(N2CCC3(CC3)C2)n1 [Compound 182],100 to 500 nM
12,COc1ccc(C(=O)Nc2ccc(S(=O)(=O)NCCO)cc2N2CCC3(CC2)CC3)nc1N1CCOCC1 [Compound 348],≤ 100 nM
13,C[C@@H](CO)NS(=O)(=O)c1ccc(C(=O)Nc2ccc([N+](=O)[O-])c(N3CCC(F)(F)CC3)c2)c(N2CCC3(CC2)CC3)c1 [Compound 29],≤ 100 nM
14,COc1ccc(C(=O)Nc2ccc(S(=O)(=O)N[C@@H](C)CO)cc2N2CCC3(CC2)CC3)nc1N1CCC(F)(F)CC1 [Compound 349],≤ 100 nM
15,CC1(F)CCN(c2nc(NC(=O)c3cnc(S(=O)(=O)NCCO)cc3N3CCC4(CC3)CC4)ccc2[N+](=O)[O-])C1 (centres unmarked) [Compound 152],≤ 100 nM
16,CSc1ccc(NC(=O)c2cnc(NS(=O)(=O)CCO)cc2N2CCC3(CC2)CC3)nc1OC1CCC1 [Compound 631],≤ 100 nM
17,CC(C)(CO)Nc1cc(NC(=O)c2cnc(S(=O)(=O)NCCO)cc2N2CCC3(CC2)CC3)ccc1OCF [Compound 475],≤ 100 nM
